Laboratory results published in patent US20240210412A1, “SULFONYL-TRIAZOLE COMPOUNDS USEFUL AS LIGANDS AND INHIBITORS OF PROSTAGLANDIN REDUCTASE 2” (University of Virginia Patent Foundation, priority 2021, published 2024).

Legend:
Test in all cases: SILAC LC-MS ABPP
Assay type in all cases: cell-based
Conditions in all cases: 25 μM 2 h, live DM93 cells
Q9BXJ9 = biological target: T1, Q9BXJ9 (Homo sapiens, UniProt Q9BXJ9)
T1 construct: endogenous in cells; host or cells: DM93 cells (SILAC), treated live; soluble proteome analysed
In short: (§1)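 Ligand engagement is measured as loss of HHS-475 probe labelling at specific tyrosines. SILAC DM93 melanoma cells were treated in situ (25 μM ligand vs DMSO, 2 h, 37 °C; then 100 μM probe, 2 h), and modified peptides were quantified by high-resolution LC-MS/MS after desthiobiotin tagging and avidin capture.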

P19174 = biological target: T2, P19174 (Homo sapiens, UniProt P19174)
T2 construct: endogenous in cells; host or cells: DM93 (SILAC)
In short: as §1

Q9Y2W1 = biological target: T3, Q9Y2W1 (Homo sapiens, UniProt Q9Y2W1)
T3 construct: endogenous in cells; host or cells: DM93 cells (SILAC)
In short: as §1

Q14566 = biological target: T4, Q14566 (Homo sapiens, UniProt Q14566)
T4 construct: performing SuTEx compound screening directly in cells; endogenous in cells; host or cells: DM93 cells (SILAC), soluble fraction
In short: as §1

Q9UQ35 = biological target: T5, Q9UQ35 (Homo sapiens, UniProt Q9UQ35)
T5 construct: endogenous in cells; host or cells: DM93 cells (SILAC)
In short: as §1

Q7Z6E9 = biological target: T6, Q7Z6E9 (Homo sapiens, UniProt Q7Z6E9)
T6 construct: endogenous in cells; host or cells: DM93 cells (SILAC), live-cell treatment
In short: as §1

P25685 = biological target: T7, P25685 (Homo sapiens, UniProt P25685)
T7 construct: endogenous in cells; host or cells: DM93 (SILAC)
In short: as §1

P78527 = biological target: T8, P78527 (Homo sapiens, UniProt P78527)
T8 construct: performing SuTEx compound screening directly in cells; endogenous in cells; host or cells: DM93 cells (SILAC)
In short: as §1

Q14980 = biological target: T9, Q14980 (Homo sapiens, UniProt Q14980)
T9 construct: performing SuTEx compound screening directly in cells; endogenous in cells; host or cells: DM93 cells (SILAC), soluble fraction
In short: as §1

P12268 = biological target: T10, P12268 (Homo sapiens, UniProt P12268)
T10 construct: endogenous in cells; host or cells: DM93 cells (SILAC)
In short: as §1

P26358 = biological target: T11, P26358 (Homo sapiens, UniProt P26358)
T11 construct: endogenous in cells; host or cells: DM93 (SILAC)
In short: as §1

P06396 = biological target: T12, P06396 (Homo sapiens, UniProt P06396)
T12 construct: endogenous in cells; host or cells: DM93 cells (SILAC)
In short: as §1

O95373 = biological target: T13, O95373 (Homo sapiens, UniProt O95373)
T13 construct: endogenous in cells; host or cells: DM93 cells (SILAC)
In short: as §1

Q92620 = biological target: T14, Q92620 (Homo sapiens, UniProt Q92620)
T14 construct: endogenous in cells; host or cells: DM93 cells (SILAC), live-cell treatment
In short: as §1

P55795 = biological target: T15, P55795 (Homo sapiens, UniProt P55795)
T15 construct: Probe-modified proteins from the soluble fraction were conjugated to a desthiobiotin-azide tag; endogenous in cells; host or cells: DM93 cells (SILAC)
In short: as §1

P35269 = biological target: T16, P35269 (Homo sapiens, UniProt P35269)
T16 construct: Probe-modified proteins from the soluble fraction were conjugated to a desthiobiotin-azide tag; endogenous in cells; host or cells: DM93 (SILAC)
In short: as §1

P49721 = biological target: T17, P49721 (Homo sapiens, UniProt P49721)
T17 construct: endogenous in cells; host or cells: DM93 cells (SILAC)
In short: as §1

T15 sequence (P55795 whole entry): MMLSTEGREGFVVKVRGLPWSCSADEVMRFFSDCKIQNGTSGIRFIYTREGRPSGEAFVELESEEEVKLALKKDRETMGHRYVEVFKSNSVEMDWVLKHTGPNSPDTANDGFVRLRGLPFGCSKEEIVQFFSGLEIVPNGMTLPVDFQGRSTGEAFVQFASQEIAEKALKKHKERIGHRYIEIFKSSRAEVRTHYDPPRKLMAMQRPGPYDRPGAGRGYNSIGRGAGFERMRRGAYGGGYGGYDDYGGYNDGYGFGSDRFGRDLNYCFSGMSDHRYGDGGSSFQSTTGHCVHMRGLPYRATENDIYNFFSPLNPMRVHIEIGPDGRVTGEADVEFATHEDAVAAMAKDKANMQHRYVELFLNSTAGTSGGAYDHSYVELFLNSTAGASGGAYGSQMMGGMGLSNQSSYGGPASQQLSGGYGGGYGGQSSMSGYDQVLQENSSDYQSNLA
T13 sequence (O95373 whole entry): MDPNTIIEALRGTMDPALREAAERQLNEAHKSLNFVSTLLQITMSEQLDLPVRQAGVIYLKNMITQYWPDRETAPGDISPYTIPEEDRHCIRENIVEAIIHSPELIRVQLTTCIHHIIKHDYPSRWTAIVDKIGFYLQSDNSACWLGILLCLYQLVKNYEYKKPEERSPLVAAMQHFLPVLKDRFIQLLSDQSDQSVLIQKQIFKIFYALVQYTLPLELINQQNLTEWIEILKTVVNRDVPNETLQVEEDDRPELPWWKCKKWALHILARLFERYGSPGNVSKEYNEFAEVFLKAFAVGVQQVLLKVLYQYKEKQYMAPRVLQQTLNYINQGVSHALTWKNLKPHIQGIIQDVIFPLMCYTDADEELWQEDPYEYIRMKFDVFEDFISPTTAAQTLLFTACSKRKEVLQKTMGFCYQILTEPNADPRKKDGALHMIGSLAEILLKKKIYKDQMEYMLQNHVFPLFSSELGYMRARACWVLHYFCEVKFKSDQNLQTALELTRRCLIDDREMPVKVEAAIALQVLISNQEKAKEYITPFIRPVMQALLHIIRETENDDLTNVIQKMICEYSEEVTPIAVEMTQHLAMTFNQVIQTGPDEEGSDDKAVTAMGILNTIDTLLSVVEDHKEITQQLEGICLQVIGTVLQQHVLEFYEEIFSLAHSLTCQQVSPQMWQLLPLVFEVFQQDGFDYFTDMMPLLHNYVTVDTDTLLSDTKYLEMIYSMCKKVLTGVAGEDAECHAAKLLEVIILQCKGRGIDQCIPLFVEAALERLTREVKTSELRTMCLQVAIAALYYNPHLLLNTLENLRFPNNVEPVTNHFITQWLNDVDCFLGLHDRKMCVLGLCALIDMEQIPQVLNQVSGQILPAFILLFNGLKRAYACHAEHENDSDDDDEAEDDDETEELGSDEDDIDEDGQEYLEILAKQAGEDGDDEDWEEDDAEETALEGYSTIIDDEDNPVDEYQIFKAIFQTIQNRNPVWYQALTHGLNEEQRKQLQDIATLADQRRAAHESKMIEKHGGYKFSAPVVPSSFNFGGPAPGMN
T9 sequence (Q14980 whole entry): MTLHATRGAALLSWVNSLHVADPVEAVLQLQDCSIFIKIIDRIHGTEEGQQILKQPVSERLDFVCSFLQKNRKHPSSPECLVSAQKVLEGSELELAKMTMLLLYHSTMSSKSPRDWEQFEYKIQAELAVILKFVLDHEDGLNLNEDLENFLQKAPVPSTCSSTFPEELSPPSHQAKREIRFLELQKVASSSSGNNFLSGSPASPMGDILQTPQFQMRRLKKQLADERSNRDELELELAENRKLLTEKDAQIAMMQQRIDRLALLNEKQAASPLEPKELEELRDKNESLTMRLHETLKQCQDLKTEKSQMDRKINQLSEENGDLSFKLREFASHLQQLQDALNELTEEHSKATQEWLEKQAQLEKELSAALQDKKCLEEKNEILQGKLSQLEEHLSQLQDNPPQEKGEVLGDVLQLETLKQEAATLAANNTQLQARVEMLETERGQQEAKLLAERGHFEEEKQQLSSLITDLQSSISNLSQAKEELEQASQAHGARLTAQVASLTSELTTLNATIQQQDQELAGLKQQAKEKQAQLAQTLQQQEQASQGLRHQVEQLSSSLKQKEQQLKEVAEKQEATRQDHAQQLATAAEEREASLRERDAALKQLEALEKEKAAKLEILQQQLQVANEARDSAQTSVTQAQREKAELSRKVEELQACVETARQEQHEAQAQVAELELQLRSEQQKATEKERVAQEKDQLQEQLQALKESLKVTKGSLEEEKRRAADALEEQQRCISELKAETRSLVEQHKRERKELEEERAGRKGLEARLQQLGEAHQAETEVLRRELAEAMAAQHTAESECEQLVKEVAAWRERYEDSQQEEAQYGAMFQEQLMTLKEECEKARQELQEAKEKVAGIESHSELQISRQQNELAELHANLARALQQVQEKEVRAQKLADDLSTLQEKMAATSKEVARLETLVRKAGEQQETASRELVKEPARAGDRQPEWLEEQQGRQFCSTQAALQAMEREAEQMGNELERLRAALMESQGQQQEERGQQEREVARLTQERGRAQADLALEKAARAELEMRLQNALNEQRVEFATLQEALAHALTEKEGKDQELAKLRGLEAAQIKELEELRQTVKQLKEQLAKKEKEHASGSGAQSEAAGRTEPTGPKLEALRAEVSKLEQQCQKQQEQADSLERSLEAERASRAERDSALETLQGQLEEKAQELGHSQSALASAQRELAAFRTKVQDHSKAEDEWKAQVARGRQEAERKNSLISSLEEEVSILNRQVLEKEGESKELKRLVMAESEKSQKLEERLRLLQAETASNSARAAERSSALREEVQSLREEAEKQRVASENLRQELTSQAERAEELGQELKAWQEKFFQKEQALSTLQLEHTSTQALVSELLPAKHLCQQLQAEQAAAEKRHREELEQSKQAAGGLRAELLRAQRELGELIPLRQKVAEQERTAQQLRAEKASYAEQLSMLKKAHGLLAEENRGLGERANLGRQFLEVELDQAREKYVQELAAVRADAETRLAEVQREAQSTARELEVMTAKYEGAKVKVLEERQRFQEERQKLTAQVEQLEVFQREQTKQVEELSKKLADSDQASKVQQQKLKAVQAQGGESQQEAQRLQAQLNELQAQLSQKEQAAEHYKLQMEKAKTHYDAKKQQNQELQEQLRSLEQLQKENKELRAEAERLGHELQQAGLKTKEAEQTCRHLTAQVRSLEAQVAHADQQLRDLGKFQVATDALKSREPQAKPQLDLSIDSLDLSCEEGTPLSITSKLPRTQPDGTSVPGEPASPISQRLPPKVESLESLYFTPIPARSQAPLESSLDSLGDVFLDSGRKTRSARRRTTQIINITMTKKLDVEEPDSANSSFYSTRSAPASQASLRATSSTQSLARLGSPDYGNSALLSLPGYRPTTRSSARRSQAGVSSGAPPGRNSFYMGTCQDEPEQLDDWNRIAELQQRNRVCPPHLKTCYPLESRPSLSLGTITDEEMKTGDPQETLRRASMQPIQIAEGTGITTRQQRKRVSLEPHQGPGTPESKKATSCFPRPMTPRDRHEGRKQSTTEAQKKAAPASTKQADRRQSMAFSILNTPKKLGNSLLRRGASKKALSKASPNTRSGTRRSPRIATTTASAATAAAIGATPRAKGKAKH
T7 sequence (P25685 whole entry): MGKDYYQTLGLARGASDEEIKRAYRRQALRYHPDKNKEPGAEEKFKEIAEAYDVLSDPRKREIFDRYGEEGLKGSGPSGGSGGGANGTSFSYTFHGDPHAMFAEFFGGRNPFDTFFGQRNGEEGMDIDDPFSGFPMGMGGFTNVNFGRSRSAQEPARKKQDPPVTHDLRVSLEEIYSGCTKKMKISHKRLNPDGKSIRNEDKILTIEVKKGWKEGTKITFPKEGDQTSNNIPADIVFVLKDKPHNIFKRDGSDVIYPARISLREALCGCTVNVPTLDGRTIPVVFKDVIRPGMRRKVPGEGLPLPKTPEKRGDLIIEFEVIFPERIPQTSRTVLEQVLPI
T4 sequence (Q14566 whole entry): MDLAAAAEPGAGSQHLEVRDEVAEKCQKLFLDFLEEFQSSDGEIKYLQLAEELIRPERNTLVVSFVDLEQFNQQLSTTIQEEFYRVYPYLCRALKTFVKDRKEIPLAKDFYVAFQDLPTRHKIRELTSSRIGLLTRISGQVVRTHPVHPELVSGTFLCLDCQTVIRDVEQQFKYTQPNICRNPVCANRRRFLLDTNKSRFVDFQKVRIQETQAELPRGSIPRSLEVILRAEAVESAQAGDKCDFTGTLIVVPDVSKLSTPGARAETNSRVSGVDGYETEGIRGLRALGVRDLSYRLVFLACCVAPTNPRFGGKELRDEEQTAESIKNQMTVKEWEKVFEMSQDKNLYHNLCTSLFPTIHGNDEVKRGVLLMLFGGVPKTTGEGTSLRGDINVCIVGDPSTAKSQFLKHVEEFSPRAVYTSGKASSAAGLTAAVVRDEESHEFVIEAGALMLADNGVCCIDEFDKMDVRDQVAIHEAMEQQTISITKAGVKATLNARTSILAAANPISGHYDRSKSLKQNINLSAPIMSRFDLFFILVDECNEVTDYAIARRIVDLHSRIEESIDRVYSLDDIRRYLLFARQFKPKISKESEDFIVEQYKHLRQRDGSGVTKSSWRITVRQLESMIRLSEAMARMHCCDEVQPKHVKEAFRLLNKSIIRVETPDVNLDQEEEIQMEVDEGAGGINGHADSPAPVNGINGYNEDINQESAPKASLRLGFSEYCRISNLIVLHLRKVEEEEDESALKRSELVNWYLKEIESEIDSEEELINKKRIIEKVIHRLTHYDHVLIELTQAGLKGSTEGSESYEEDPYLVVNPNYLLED

Question: Which “liganded tyrosine site 86” value (Q9BXJ9) does the source give for `O=C(NC1CC1)c1ccc(S(=O)(=O)n2cncn2)cc1` [HHS-0101, 4-((1H-1,2,4-triazol-1-yl)sulfonyl)-N-cyclopropylbenzamide] here?
Answer: HHS0101.Y|HHS0701.Y (tyrosine sites that showed >80% reductions (SR >5) in probe labeling in cells treated with compounds (liganded sites))

Question: What does the source list for `O=C(NCC1CC1)c1ccc(S(=O)(=O)n2cncn2)cc1` [HHS-0201, 4-((1H-1,2,4-triazol-1-yl)sulfonyl)-N-(cyclopropylmethyl)benzamide]?
Answer: liganded tyrosine site 472 (P19174): HHS0201.Y (tyrosine sites that showed >80% reductions (SR >5) in probe labeling in cells treated with compounds (liganded sites)); liganded tyrosine site 344 (Q9Y2W1): HHS0201.Y|HHS0301.Y (tyrosine sites that showed >80% reductions (SR >5) in probe labeling in cells treated with compounds (liganded sites)); liganded tyrosine site 783 (Q14566): HHS0201.Y (tyrosine sites that showed >80% reductions (SR >5) in probe labeling in cells treated with compounds (liganded sites))

Question: Which “liganded tyrosine site 2390” value (Q9UQ35) does the source give for `O=C(NC1CCCCC1)c1ccc(S(=O)(=O)n2cncn2)cc1` [HHS-0301, 4-((1H-1,2,4-triazol-1-yl)sulfonyl)-N-cyclohexylbenzamide] here?
Answer: HHS0301.Y (tyrosine sites that showed >80% reductions (SR >5) in probe labeling in cells treated with compounds (liganded sites))

Question: And the “liganded tyrosine site 218” value (Q7Z6E9)?
Answer: HHS0301.Y (tyrosine sites that showed >80% reductions (SR >5) in probe labeling in cells treated with compounds (liganded sites))

Question: And the “liganded tyrosine site 52” value (P25685)?
Answer: HHS0301.Y (tyrosine sites that showed >80% reductions (SR >5) in probe labeling in cells treated with compounds (liganded sites))

Question: And the “liganded tyrosine site 701” value (P78527)?
Answer: HHS0301.Y (tyrosine sites that showed >80% reductions (SR >5) in probe labeling in cells treated with compounds (liganded sites))

Question: Which “liganded tyrosine site 1836” value (Q14980) does the source give for `O=C(NCc1ccccc1)c1ccc(S(=O)(=O)n2cncn2)cc1` [HHS-0401, 4-((1H-1,2,4-triazol-1-yl)sulfonyl)-N-benzylbenzamide] here?
Answer: HHS0401.Y (tyrosine sites that showed >80% reductions (SR >5) in probe labeling in cells treated with compounds (liganded sites))

Question: And the “liganded tyrosine site 233” value (P12268)?
Answer: HHS0401.Y (tyrosine sites that showed >80% reductions (SR >5) in probe labeling in cells treated with compounds (liganded sites))

Question: What about the “liganded tyrosine site 367” value (P26358) of the same compound?
Answer: HHS0401.Y (tyrosine sites that showed >80% reductions (SR >5) in probe labeling in cells treated with compounds (liganded sites))

Question: How did the “liganded tyrosine site 469” value (P06396) turn out when `O=C(c1ccc(S(=O)(=O)n2cncn2)cc1)N1CCC(c2ccccc2)CC1` [HHS-0701, (4-((1H-1,2,4-triazol-1-yl)sulfonyl)phenyl)(4-phenylpiperidin-1-yl)methanone] was run?
Answer: HHS0701.Y (tyrosine sites that showed >80% reductions (SR >5) in probe labeling in cells treated with compounds (liganded sites))

Question: What about the “liganded tyrosine site 416” value (O95373) of the same compound?
Answer: HHS0701.Y (tyrosine sites that showed >80% reductions (SR >5) in probe labeling in cells treated with compounds (liganded sites))

Question: What about the “liganded tyrosine site 455” value (O95373) of the same compound?
Answer: HHS0701.Y (tyrosine sites that showed >80% reductions (SR >5) in probe labeling in cells treated with compounds (liganded sites))

Question: What about the “liganded tyrosine site 261” value (Q92620) of the same compound?
Answer: HHS0701.Y (tyrosine sites that showed >80% reductions (SR >5) in probe labeling in cells treated with compounds (liganded sites))

Question: What about the “liganded tyrosine site 240” value (P55795) of the same compound?
Answer: HHS0701.Y (tyrosine sites that showed >80% reductions (SR >5) in probe labeling in cells treated with compounds (liganded sites))

Question: And the “liganded tyrosine site 243” value (P55795)?
Answer: HHS0701.Y (tyrosine sites that showed >80% reductions (SR >5) in probe labeling in cells treated with compounds (liganded sites))

Question: And the “liganded tyrosine site 124” value (P35269)?
Answer: HHS0701.Y (tyrosine sites that showed >80% reductions (SR >5) in probe labeling in cells treated with compounds (liganded sites))

Question: What about the “liganded tyrosine site 134” value (P49721) of the same compound?
Answer: HHS0701.Y (tyrosine sites that showed >80% reductions (SR >5) in probe labeling in cells treated with compounds (liganded sites))
